Assay results reported in ChEMBL document CHEMBL1649565, “Besifloxacin, a novel fluoroquinolone, has broad-spectrum in vitro activity against aerobic and anaerobic bacteria” (Antimicrob Agents Chemother, 2009).
Converted amounts (≈) assume the structure as drawn. The source made the active and inactive calls. The rule behind the calls is not given here.

Key:
[1] = tested on: Streptococcus sp.; assay: Antibacterial activity against Lancefield Streptococcus sp. group F assessed as percent susceptible isolates by CLSI M100-S18 method; assay type: functional
[2] = tested on: Fusobacterium sp.; assay: Antibacterial activity against Fusobacterium sp. by CLSI M11-A7 method; assay type: functional
[3] = tested on: Streptococcus salivarius; assay: Antibacterial activity against Streptococcus salivarius by CLSI M100-S18 method; assay type: functional
[4] = Antibacterial activity against Lancefield Streptococcus sp. 'group G' by CLSI M100-S18 method; assay type: functional
[5] = tested on: Moraxella catarrhalis; assay: Antibacterial activity against Moraxella catarrhalis by CLSI M7-A7 method; assay type: functional
[6] = tested on: Prevotella sp.; assay: Antibacterial activity against Prevotella sp. assessed as percent susceptible isolates by CLSI M11-A7 method; assay type: functional
[7] = tested on: Staphylococcus epidermidis; assay: Antibacterial activity against non-ciprofloxacin-susceptible and methicillin-susceptible Staphylococcus epidermidis assessed as percent susceptible isolates by CLSI M100-S18 method; assay type: functional
[8] = tested on: Streptococcus anginosus; assay: Antibacterial activity against Streptococcus anginosus by CLSI M100-S18 method; assay type: functional
[9] = tested on: Staphylococcus warneri; assay: Antibacterial activity against Staphylococcus warneri by CLSI M100-S18 method; assay type: functional
[10] = tested on: Streptococcus sp.; assay: Antibacterial activity against Lancefield Streptococcus sp. group F by CLSI M100-S18 method; assay type: functional
[11] = tested on: Staphylococcus aureus; assay: Antibacterial activity against ciprofloxacin-susceptible and methicillin-resistant Staphylococcus aureus by CLSI M100-S18 method; assay type: functional
[12] = tested on: Legionella pneumophila; assay: Antibacterial activity against Legionella pneumophila by CLSI M7-A7 method; assay type: functional
[13] = tested on: Staphylococcus epidermidis
[14] = Antibacterial activity against Lancefield Streptococcus sp. 'group C' assessed as percent susceptible isolates by CLSI M100-S18 method; assay type: functional
[15] = tested on: Streptococcus agalactiae; assay: Antibacterial activity against Streptococcus agalactiae by CLSI M100-S18 method; assay type: functional
[16] = tested on: Staphylococcus aureus; assay: Antibacterial activity against non-ciprofloxacin-susceptible and methicillin-susceptible Staphylococcus aureus by CLSI M100-S18 method; assay type: functional
[17] = tested on: Staphylococcus saprophyticus; assay: Antibacterial activity against Staphylococcus saprophyticus assessed as percent susceptible isolates by CLSI M100-S18 method; assay type: functional
[18] = tested on: Cutibacterium acnes; assay: Antibacterial activity against Propionibacterium acnes by CLSI M11-A7 method; assay type: functional
[19] = tested on: Staphylococcus haemolyticus; assay: Antibacterial activity against Staphylococcus haemolyticus by CLSI M100-S18 method; assay type: functional
[20] = tested on: Morganella morganii; assay: Antibacterial activity against Morganella morganii by CLSI M7-A7 method; assay type: functional
[21] = tested on: Bacteroides fragilis; assay: Antibacterial activity against Bacteroides fragilis by CLSI M11-A7 method; assay type: functional
[22] = tested on: Prevotella sp.; assay: Antibacterial activity against Prevotella sp. by CLSI M11-A7 method; assay type: functional
[23] = tested on: Staphylococcus hominis; assay: Antibacterial activity against Staphylococcus hominis assessed as percent susceptible isolates by CLSI M100-S18 method; assay type: functional
[24] = tested on: Morganella morganii; assay: Antibacterial activity against Morganella morganii assessed as percent susceptible isolates by CLSI M7-A7 method; assay type: functional
[25] = tested on: Staphylococcus haemolyticus; assay: Antibacterial activity against Staphylococcus haemolyticus assessed as percent susceptible isolates by CLSI M100-S18 method; assay type: functional
[26] = tested on: Staphylococcus lugdunensis; assay: Antibacterial activity against Staphylococcus lugdunensis assessed as percent susceptible isolates by CLSI M100-S18 method; assay type: functional
[27] = tested on: Peptostreptococcus sp.; assay: Antibacterial activity against Peptostreptococcus sp. by CLSI M11-A7 method; assay type: functional
[28] = tested on: Peptostreptococcus sp.; assay: Antibacterial activity against Peptostreptococcus sp. assessed as percent susceptible isolates by CLSI M11-A7 method; assay type: functional

COc1c(N2CCNC(C)C2)c(F)cc2c(=O)c(C(=O)O)cn(C3CC3)c12 (stereo not drawn) [GATIFLOXACIN]
Activity [1]: 100% | MIC50 [2]: 1 µg/mL (≈ 2.66 µM) | MIC90 [2]: 4 µg/mL (≈ 10.7 µM) | MIC50 [3]: 0.06 µg/mL (≈ 0.16 µM) | MIC90 [3]: 1 µg/mL (≈ 2.66 µM) | MIC [4]: ≤ 0.015 µg/mL | MIC50 [4]: ≤ 0.015 µg/mL | MIC90 [4]: 0.06 µg/mL (≈ 0.16 µM) | MIC50 [5]: 0.25 µg/mL (≈ 0.666 µM) | MIC90 [5]: 0.25 µg/mL (≈ 0.666 µM) | Activity [6]: inactive | Activity [7]: 83.3% | MIC50 [8]: 0.25 µg/mL (≈ 0.666 µM) | MIC90 [8]: 0.5 µg/mL (≈ 1.33 µM) | MIC50 [9]: 0.12 µg/mL (≈ 0.32 µM) | MIC90 [9]: 4 µg/mL (≈ 10.7 µM) | MIC [10]: ≤ 0.015 µg/mL | MIC50 [10]: ≤ 0.015 µg/mL | MIC90 [10]: 0.06 µg/mL (≈ 0.16 µM) | MIC50 [11]: 0.06 µg/mL (≈ 0.16 µM) | MIC90 [11]: 0.25 µg/mL (≈ 0.666 µM) | MIC50 [12]: 1 µg/mL (≈ 2.66 µM) | MIC90 [12]: 2 µg/mL (≈ 5.33 µM) | MIC90 [13]: inactive | Activity [14]: 100% | MIC50 [15]: 0.03 µg/mL (≈ 0.0799 µM) | MIC90 [15]: 0.06 µg/mL (≈ 0.16 µM) | MIC50 [16]: 4 µg/mL (≈ 10.7 µM) | MIC90 [16]: > 8 µg/mL | Activity [17]: 99% | MIC [18]: 0.25 µg/mL (≈ 0.666 µM) | MIC50 [18]: 0.25 µg/mL (≈ 0.666 µM) | MIC90 [18]: 0.5 µg/mL (≈ 1.33 µM) | MIC50 [19]: 2 µg/mL (≈ 5.33 µM) | MIC90 [19]: 8 µg/mL (≈ 21.3 µM) | MIC50 [20]: 0.12 µg/mL (≈ 0.32 µM) | MIC90 [20]: > 8 µg/mL | MIC50 [21]: 2 µg/mL (≈ 5.33 µM) | MIC90 [21]: 4 µg/mL (≈ 10.7 µM) | MIC50 [22]: 8 µg/mL (≈ 21.3 µM) | MIC90 [22]: 16 µg/mL (≈ 42.6 µM) | Activity [23]: 32% | Activity [24]: 90.2% | Activity [25]: 64.4% | Activity [26]: 60% | MIC50 [27]: 2 µg/mL (≈ 5.33 µM) | MIC90 [27]: 4 µg/mL (≈ 10.7 µM) | Activity [28]: inactive
